Data: ChEMBL document CHEMBL3864149, “Design, synthesis and structure-activity relationships of novel phenylalanine-based amino acids as kainate receptors ligands” (Bioorg Med Chem Lett, 2016)

Tests used:
[1] = Displacement of [3H]-AMPA from AMPA receptor in rat brain membranes after 30 mins; type: cell membranes, Membrane
[2] = Displacement of [3H]-kainate from kainate receptor in rat brain membranes after 60 mins; type: cell membranes, Membrane
[3] = target: Glutamate receptor ionotropic, kainate 1 (Rattus norvegicus, UniProt P22756); assay: Displacement of [3H]-NF608 from rat recombinant GluK1 receptor expressed in baculovirus infected insect Sf9 cell membranes after 60 mins
Chain of Glutamate receptor ionotropic, kainate 1 (P22756 whole entry): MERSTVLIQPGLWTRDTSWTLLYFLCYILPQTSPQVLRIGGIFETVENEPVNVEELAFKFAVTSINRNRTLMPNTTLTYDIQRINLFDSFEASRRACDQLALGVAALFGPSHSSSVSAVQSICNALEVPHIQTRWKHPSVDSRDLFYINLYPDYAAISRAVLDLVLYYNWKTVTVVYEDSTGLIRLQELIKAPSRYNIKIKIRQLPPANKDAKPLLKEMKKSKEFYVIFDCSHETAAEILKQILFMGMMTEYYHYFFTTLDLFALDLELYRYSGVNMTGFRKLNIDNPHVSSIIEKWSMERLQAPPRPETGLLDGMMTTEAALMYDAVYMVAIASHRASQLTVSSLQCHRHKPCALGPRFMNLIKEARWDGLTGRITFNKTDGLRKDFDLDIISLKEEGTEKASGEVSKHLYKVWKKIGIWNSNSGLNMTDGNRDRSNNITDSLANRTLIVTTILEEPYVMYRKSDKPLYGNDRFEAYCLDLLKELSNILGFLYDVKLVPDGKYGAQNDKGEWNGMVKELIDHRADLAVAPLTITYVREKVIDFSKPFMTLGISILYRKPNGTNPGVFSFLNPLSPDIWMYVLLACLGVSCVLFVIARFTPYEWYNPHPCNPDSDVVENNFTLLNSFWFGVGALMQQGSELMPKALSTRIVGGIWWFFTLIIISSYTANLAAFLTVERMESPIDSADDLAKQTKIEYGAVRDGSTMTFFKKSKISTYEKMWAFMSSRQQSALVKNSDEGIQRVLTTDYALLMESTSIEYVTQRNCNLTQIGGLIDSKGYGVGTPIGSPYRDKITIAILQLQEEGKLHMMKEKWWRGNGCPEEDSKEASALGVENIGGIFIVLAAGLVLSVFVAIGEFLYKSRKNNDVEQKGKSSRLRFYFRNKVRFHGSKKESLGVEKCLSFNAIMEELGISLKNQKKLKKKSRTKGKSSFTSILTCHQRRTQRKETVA

[4] = target: Glutamate receptor ionotropic, kainate 3 (Rattus norvegicus, UniProt P42264); assay: Displacement of [3H]-kainate from rat recombinant GluK3 receptor expressed in baculovirus infected insect Sf9 cell membranes after 60 mins
Chain of Glutamate receptor ionotropic, kainate 3 (P42264 whole entry): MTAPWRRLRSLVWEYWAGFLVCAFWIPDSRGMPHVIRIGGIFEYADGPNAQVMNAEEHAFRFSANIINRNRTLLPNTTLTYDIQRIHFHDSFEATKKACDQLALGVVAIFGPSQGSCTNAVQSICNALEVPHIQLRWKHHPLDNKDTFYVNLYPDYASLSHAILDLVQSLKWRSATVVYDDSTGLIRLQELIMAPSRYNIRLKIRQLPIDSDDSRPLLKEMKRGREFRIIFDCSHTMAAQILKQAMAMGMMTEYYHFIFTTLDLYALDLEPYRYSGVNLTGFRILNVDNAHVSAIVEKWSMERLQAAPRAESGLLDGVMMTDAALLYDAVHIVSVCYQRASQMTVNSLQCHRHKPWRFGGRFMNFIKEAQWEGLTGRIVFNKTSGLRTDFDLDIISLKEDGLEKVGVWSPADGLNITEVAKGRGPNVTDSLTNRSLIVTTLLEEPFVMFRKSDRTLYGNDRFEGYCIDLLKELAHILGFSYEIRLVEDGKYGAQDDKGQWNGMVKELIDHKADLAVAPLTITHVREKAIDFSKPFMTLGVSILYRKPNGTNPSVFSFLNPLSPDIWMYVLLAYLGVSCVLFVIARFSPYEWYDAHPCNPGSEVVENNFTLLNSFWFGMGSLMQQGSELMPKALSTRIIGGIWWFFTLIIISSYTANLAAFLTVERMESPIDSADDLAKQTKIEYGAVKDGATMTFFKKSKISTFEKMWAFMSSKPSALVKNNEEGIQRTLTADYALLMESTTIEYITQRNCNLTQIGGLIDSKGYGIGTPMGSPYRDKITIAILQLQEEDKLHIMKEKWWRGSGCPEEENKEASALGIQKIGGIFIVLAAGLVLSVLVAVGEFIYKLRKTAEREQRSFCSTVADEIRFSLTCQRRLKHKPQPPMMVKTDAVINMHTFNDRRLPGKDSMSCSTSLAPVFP

[5] = species on record: Rattus norvegicus; assay: Selectivity ratio of Ki for rat recombinant GluK3 receptor to Ki for rat recombinant GluK1 receptor
[6] = Displacement of [3H]-AMPA from AMPA receptor in rat brain membranes after 1 hr by liquid scintillation counting method; type: cell membranes, Membrane
[7] = Displacement of [3H]-kainate from kainate receptor in rat brain membranes after 1 hr by liquid scintillation counting method; type: cell membranes, Membrane
[8] = target: Glutamate receptor ionotropic, kainate 2 (Homo sapiens, UniProt Q13002); assay: Displacement of [3H]-kainate from human recombinant GluK2 receptor expressed in HEK293 cell membranes after 60 mins
Chain of Glutamate receptor ionotropic, kainate 2 (Q13002 whole entry): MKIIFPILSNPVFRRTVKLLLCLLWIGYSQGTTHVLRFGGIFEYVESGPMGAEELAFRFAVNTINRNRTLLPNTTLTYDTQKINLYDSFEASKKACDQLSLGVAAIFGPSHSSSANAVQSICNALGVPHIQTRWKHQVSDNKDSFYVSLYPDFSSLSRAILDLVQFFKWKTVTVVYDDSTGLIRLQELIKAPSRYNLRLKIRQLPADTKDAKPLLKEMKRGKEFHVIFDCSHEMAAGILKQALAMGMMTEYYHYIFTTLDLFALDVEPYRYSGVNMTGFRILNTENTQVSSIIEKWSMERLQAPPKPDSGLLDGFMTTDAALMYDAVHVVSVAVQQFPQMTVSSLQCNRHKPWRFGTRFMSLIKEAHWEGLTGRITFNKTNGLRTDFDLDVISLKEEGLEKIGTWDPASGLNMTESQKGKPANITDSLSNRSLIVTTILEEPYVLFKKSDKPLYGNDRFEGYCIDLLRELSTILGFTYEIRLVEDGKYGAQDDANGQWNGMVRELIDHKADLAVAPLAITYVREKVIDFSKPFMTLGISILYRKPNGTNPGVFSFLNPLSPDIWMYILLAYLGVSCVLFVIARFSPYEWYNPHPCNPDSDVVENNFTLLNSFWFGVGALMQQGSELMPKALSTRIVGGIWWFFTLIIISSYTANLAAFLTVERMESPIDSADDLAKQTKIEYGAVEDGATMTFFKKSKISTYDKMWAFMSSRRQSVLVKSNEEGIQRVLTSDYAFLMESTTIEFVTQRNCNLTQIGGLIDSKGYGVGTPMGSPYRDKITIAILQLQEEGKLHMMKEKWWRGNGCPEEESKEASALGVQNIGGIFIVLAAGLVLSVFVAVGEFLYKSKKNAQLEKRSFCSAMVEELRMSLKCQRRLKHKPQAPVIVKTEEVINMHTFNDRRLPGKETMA

[9] = target: T1, Glutamate receptor ionotropic, kainate 5 (Homo sapiens, UniProt Q16478); assay: Displacement of [3H]-kainate from human recombinant GluK5 receptor expressed in HEK293 cell membranes after 60 mins
T1 sequence (Q16478 whole entry): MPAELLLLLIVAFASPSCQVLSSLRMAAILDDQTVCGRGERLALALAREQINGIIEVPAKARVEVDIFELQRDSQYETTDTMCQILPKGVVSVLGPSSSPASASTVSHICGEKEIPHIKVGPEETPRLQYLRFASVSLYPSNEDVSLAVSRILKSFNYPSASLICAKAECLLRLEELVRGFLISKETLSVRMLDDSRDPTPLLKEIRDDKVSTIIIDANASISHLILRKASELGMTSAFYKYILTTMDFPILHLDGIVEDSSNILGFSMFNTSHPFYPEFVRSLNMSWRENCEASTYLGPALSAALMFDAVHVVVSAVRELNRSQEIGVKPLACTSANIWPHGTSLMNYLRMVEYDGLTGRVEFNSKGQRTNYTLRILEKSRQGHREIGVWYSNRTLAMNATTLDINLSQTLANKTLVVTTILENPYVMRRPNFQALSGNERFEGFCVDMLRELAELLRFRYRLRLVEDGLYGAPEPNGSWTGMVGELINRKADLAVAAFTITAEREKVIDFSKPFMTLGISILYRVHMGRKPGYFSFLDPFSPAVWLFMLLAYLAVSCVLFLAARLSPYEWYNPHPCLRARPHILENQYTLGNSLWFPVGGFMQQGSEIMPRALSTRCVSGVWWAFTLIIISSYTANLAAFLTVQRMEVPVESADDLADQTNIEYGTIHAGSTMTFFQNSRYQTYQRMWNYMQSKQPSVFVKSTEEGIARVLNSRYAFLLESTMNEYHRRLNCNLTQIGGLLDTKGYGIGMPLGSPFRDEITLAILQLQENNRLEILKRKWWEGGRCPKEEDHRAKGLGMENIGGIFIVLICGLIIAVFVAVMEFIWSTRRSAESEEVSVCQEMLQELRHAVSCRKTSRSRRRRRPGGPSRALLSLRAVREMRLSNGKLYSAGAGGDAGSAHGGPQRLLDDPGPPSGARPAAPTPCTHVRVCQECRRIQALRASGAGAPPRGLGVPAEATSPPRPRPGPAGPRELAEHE

| Ki [1] [µM] | pKi [1] | Ki [2] [µM] | Ki ([3]; read-out: Ki) [µM] | Ki [4] [µM] | Ki ([3]; read-out: pKi (converted)) [µM] | Compound | other results |
| --- | --- | --- | --- | --- | --- | --- | --- |
| 38 | 4.43 | > 100 | 32 | > 100 | – | NC(Cc1cc(-c2cccc(C(=O)O)c2)cc([N+](=O)[O-])c1)C(=O)O (racemic) | – |
| > 100 | – | > 100 | 35 | > 100 | – | NC(Cc1ccc(Cl)c(-c2cccc(C(=O)O)c2)c1)C(=O)O (racemic) | – |
| – | – | – | – | > 100 | – | NC(Cc1cccc(-c2cccc(C(=O)O)c2)c1)C(=O)O (centres undefined) | – |
| > 100 | – | > 100 | 5.5 | 11 | – | NC(Cc1cc(Cl)c(O)c(-c2cccc(C(=O)O)c2)c1)C(=O)O (racemic) | Ratio Ki [5]: 2 |
| – | – | – | – | > 100 | – | NC(Cc1cc(Cl)c(Cl)c(-c2cccc(C(=O)O)c2)c1)C(=O)O (centres undefined) | – |
| 51 | 4.31 | > 100 | 5.7 | 25 | 5.5 | NC(Cc1cc(Cl)cc(-c2cccc(C(=O)O)c2)c1)C(=O)O (racemic) | – |
| – | – | – | – | > 1000 | – | CC(C)(C)c1onc(OCP(=O)(O)O)c1C[C@H](N)C(=O)O | IC50 [6]: 16 µM; IC50 [7]: > 100 µM |
| 65 | 4.19 | > 100 | 7.2 | 23 | – | NC(Cc1ccc([N+](=O)[O-])c(-c2cccc(C(=O)O)c2)c1)C(=O)O (racemic) | – |
| 100 | – | > 100 | 4.9 | > 100 | 4.68 | Nc1c(Cl)cc(CC(N)C(=O)O)cc1-c1cccc(C(=O)O)c1 (racemic) | Ratio Ki [5]: 20 |
| > 100 | – | > 100 | 7.5 | > 100 | 7.08 | Nc1c(-c2cccc(C(=O)O)c2)cc(CC(N)C(=O)O)cc1[N+](=O)[O-] (racemic) | – |
| 62 | 4.21 | 32 | 6.1 | > 100 | 5.89 | NC(Cc1cc(-c2cccc(C(=O)O)c2)c(Cl)c([N+](=O)[O-])c1)C(=O)O (racemic) | pKi [2]: 4.5 |
| > 100 | – | > 100 | 26 | > 100 | – | Nc1ccc(CC(N)C(=O)O)cc1-c1cccc(C(=O)O)c1 (racemic) | – |
| – | – | – | – | – | – | O=C(O)[C@@H]1C[C@H]2C[C@@H](CN3CC(F)(F)C[C@H]3C(=O)O)CC[C@H]2CN1 | Ki [8]: 0.05 µM; Ki [9]: 8.9 µM |
